Assay results as given in article doi:10.1101/2020.06.11.145995v1 (biorxiv, 2020).
Like-named read-outs stand apart in the source and are kept apart here.

Columns and labels:
Assay in all cases: biochemical
MEK2 = MEK2 (Homo sapiens, UniProt P36507)
FAK = FAK (Homo sapiens, UniProt Q05397)
FLT3(D835Y) = FLT3(D835Y) (Homo sapiens, UniProt P36888, D835Y)
HIPK1 = HIPK1 (Homo sapiens, UniProt Q86Z02)
CAMKK2 = CAMKK2 (Homo sapiens, UniProt Q96RR4)
LATS1 = LATS1 (Homo sapiens, UniProt O95835)
CSNK1G1 = CSNK1G1 (Homo sapiens, UniProt Q9HCP0)
HIPK2 = HIPK2 (Homo sapiens, UniProt Q9H2X6)
DRAK2 = DRAK2 (Homo sapiens, UniProt O94768)
MARK1 = MARK1 (Homo sapiens, UniProt Q9P0L2)
MET(M1250T) = MET(M1250T) (Homo sapiens, UniProt P08581, M1250T)
AKT3 = AKT3 (Homo sapiens, UniProt Q9Y243)
DMPK2 = DMPK2 (Homo sapiens, UniProt Q6DT37)
GRK1 = GRK1 (Homo sapiens, UniProt Q15835)
FLT3 = FLT3 (Homo sapiens, UniProt P36888)
MAST1 = MAST1 (Homo sapiens, UniProt Q9Y2H9)
CHEK2 = CHEK2 (Homo sapiens, UniProt O96017)
CAMK1 = CAMK1 (Homo sapiens, UniProt Q14012)
FLT3(ITD) = FLT3(ITD) (Homo sapiens, UniProt P36888, ITD)
LRRK2 = LRRK2 (Homo sapiens, UniProt Q5S007)
LIMK1 = LIMK1 (Homo sapiens, UniProt P53667)
LCK = LCK (Homo sapiens, UniProt P06239)
LRRK2(G2019S) = LRRK2(G2019S) (Homo sapiens, UniProt Q5S007, G2019S)
MEK5 = MEK5 (Homo sapiens, UniProt Q13163)
MAK = MAK (Homo sapiens, UniProt P20794)
GSK3A = GSK3A (Homo sapiens, UniProt P49840)
LYN = LYN (Homo sapiens, UniProt P07948)
MAP4K3 = MAP4K3 (Homo sapiens, UniProt Q8IVH8)
BIKE = BIKE (Homo sapiens, UniProt Q9NSY1)
DCAMKL2 = DCAMKL2 (Homo sapiens, UniProt Q8N568)
[1] = read-out: HYJ-2-002-1 (1uM) % control
[2] = read-out: CPT-1-70-1 (1uM) % control

Sequence of MAK (P20794 whole entry): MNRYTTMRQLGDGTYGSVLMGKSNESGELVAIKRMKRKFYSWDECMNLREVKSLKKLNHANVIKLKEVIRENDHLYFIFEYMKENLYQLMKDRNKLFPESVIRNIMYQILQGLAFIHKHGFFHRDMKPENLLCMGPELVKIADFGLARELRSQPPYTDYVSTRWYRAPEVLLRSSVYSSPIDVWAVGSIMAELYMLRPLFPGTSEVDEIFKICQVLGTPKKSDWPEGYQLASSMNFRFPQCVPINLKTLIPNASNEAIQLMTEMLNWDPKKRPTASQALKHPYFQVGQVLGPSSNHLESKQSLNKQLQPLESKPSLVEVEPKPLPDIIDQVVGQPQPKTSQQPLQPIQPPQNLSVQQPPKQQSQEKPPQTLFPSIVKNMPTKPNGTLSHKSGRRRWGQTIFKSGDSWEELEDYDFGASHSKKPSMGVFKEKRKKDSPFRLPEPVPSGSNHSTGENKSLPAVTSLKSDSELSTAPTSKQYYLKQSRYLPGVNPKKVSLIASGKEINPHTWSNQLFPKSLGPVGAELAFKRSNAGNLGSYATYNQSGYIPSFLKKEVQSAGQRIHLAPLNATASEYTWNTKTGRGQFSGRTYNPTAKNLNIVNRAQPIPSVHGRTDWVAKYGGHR
Sequence of BIKE (Q9NSY1 whole entry): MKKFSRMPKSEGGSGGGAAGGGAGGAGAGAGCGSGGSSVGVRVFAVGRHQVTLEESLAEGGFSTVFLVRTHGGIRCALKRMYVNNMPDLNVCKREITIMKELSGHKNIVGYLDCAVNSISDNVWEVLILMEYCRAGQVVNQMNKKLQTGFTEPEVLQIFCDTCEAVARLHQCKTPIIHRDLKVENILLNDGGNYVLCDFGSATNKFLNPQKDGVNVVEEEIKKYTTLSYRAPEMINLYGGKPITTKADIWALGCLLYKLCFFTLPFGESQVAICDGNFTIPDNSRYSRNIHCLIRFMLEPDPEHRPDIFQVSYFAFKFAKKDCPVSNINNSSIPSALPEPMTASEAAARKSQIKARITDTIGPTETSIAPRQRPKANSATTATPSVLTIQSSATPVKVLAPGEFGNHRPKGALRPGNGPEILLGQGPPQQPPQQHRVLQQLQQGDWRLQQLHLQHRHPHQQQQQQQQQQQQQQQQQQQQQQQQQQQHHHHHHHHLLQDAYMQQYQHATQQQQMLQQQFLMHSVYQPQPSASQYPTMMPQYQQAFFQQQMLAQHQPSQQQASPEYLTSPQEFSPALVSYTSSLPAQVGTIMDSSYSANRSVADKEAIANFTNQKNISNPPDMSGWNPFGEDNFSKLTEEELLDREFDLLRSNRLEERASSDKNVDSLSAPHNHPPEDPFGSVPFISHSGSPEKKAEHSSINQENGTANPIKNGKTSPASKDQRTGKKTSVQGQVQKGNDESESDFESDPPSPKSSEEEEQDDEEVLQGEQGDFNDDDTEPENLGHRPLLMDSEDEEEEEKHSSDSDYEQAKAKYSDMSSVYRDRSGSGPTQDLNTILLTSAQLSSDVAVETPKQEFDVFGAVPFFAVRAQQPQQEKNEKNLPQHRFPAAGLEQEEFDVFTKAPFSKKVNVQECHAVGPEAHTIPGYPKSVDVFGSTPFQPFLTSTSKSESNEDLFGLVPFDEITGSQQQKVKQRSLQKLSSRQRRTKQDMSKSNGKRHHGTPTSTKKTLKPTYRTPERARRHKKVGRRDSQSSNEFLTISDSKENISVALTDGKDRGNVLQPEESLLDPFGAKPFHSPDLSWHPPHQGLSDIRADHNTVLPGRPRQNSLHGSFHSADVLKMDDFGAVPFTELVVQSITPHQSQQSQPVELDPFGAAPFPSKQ
Sequence of DRAK2 (O94768 whole entry): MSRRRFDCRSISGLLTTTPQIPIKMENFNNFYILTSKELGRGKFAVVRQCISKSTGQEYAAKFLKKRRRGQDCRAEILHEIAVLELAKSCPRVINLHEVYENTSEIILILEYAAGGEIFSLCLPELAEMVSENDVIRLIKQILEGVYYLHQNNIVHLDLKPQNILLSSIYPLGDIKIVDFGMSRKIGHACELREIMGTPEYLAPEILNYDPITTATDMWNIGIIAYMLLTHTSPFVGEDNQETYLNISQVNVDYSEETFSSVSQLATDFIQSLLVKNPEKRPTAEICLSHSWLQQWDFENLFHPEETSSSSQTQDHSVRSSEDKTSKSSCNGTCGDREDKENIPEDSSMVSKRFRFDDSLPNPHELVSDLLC
Sequence of LRRK2 (Q5S007 whole entry): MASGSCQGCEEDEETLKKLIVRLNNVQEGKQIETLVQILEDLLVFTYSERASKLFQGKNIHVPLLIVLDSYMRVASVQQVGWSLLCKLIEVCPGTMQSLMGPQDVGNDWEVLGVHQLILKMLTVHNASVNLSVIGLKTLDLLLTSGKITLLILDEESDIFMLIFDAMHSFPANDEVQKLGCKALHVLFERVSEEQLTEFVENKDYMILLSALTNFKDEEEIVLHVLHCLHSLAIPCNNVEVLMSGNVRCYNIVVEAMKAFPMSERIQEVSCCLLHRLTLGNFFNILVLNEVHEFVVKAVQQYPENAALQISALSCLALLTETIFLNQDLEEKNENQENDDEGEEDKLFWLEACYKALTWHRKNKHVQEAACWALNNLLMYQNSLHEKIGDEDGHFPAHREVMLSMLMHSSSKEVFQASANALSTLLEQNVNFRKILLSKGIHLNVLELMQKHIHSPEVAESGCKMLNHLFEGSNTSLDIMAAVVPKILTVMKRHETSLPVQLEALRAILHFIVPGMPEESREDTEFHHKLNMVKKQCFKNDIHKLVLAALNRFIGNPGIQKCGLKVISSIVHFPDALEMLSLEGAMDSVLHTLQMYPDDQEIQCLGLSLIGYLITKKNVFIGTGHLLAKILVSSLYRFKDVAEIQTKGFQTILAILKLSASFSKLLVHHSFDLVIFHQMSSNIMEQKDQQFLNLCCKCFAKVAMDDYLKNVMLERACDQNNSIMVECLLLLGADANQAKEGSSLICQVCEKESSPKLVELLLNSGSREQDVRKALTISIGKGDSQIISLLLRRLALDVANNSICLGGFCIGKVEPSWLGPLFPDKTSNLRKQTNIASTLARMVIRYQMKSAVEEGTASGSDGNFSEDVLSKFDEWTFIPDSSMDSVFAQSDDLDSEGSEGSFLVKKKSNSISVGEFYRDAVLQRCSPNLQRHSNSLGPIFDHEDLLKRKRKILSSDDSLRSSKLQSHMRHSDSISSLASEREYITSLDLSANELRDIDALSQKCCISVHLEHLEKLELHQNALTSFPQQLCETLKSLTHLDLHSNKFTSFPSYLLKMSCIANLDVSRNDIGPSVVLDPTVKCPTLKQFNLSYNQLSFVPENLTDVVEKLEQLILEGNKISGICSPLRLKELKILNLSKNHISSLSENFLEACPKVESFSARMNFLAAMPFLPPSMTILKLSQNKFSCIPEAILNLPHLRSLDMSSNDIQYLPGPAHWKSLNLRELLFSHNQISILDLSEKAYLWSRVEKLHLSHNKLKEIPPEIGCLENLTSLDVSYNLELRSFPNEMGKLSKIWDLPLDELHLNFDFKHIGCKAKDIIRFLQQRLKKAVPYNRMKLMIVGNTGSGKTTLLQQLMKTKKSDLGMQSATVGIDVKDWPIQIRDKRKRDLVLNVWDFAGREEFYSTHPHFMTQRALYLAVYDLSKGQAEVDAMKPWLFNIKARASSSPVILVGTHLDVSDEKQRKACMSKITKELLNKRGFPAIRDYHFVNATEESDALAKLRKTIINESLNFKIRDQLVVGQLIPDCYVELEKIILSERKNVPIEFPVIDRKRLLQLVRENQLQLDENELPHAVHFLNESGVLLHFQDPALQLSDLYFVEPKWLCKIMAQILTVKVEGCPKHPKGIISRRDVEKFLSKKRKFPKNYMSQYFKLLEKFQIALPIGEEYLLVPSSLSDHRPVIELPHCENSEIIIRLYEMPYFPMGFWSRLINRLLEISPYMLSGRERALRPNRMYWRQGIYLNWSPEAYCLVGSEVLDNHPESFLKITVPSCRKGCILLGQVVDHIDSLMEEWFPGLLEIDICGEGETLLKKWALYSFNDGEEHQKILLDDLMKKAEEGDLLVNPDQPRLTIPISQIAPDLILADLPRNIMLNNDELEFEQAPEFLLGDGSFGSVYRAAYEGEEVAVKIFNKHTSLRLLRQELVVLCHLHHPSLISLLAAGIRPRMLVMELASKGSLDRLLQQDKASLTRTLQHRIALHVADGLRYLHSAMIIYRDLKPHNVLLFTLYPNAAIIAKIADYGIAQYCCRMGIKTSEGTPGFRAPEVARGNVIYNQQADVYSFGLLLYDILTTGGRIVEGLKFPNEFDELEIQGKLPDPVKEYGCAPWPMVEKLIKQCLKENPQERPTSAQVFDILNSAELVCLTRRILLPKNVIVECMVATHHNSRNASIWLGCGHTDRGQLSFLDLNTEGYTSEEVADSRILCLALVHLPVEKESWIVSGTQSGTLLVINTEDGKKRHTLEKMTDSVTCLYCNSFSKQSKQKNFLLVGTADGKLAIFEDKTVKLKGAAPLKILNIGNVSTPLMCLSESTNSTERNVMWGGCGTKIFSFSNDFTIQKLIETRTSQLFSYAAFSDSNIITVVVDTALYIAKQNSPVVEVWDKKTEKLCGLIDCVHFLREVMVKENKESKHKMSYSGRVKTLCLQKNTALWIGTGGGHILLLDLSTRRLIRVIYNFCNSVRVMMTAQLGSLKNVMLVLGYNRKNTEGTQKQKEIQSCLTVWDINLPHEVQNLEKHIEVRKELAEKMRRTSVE
Sequence of CSNK1G1 (Q9HCP0 whole entry): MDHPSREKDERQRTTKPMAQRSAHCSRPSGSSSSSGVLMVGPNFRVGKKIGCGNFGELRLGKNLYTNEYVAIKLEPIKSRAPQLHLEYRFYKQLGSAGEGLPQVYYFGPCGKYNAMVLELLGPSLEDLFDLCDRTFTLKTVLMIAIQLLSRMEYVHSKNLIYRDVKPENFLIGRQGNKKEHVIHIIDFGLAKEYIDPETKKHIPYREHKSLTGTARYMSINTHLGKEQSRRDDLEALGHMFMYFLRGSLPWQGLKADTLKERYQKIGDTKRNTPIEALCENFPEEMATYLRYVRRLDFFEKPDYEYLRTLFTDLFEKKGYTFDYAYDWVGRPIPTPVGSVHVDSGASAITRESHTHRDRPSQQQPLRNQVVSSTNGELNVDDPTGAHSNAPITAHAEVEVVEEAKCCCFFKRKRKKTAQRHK

SMILES: CCN1CCN(Cc2ccc(NC(=O)c3ccc(C)c(CCc4cnc5[nH]ccc5c4OC)c3)cc2C(F)(F)F)CC1 [HYJ-2-002-1]
- remaining activity at 1 µM (MEK2; [1]): 22%
- remaining activity at 1 µM (FAK; [1]): 91%
- remaining activity at 1 µM (FLT3(D835Y); [1]): 38%
- remaining activity at 1 µM (HIPK1; [1]): 51%
- remaining activity at 1 µM (CAMKK2; [1]): 100%
- remaining activity at 1 µM (LATS1; [1]): 100%
- remaining activity at 1 µM (CSNK1G1; [1]): 93%
- remaining activity at 1 µM (HIPK2; [1]): 84%
- remaining activity at 1 µM (DRAK2; [1]): 57%
- remaining activity at 1 µM (MARK1; [1]): 100%
- remaining activity at 1 µM (MET(M1250T); [1]): 61%
- remaining activity at 1 µM (AKT3; [1]): 100%
- remaining activity at 1 µM (DMPK2; [1]): 92%
- remaining activity at 1 µM (GRK1; [1]): 100%
- remaining activity at 1 µM (FLT3; [1]): 0.5%
- remaining activity at 1 µM (MAST1; [1]): 99%
- remaining activity at 1 µM (CHEK2; [1]): 63%
- remaining activity at 1 µM (CAMK1; [1]): 80%
- remaining activity at 1 µM (FLT3(ITD); [1]): 2.3%
- remaining activity at 1 µM (LRRK2; [1]): 94%
- remaining activity at 1 µM (LIMK1; [1]): 26%
- remaining activity at 1 µM (LCK; [1]): 1.1%
- remaining activity at 1 µM (LRRK2(G2019S); [1]): 83%
- remaining activity at 1 µM (MEK5; [1]): 0.85%
- remaining activity at 1 µM (MAK; [1]): 100%
- remaining activity at 1 µM (GSK3A; [1]): 78%
- remaining activity at 1 µM (LYN; [1]): 0.15%
- remaining activity at 1 µM (MAP4K3; [1]): 40%
- remaining activity at 1 µM (BIKE; [1]): 96%
- remaining activity at 1 µM (DCAMKL2; [1]): 100%

SMILES: CN1CCN(c2ccc(Nc3nc(Oc4ccc(NC(=O)CCl)cc4)c4cc[nH]c4n3)cc2)CC1 [CPT1-70-1]
- remaining activity at 1 µM (MEK2; [2]): 19%
- remaining activity at 1 µM (FAK; [2]): 85%
- remaining activity at 1 µM (FLT3(D835Y); [2]): 0.35%
- remaining activity at 1 µM (HIPK1; [2]): 52%
- remaining activity at 1 µM (CAMKK2; [2]): 68%
- remaining activity at 1 µM (LATS1; [2]): 77%
- remaining activity at 1 µM (CSNK1G1; [2]): 18%
- remaining activity at 1 µM (HIPK2; [2]): 90%
- remaining activity at 1 µM (DRAK2; [2]): 90%
- remaining activity at 1 µM (MARK1; [2]): 2.1%
- remaining activity at 1 µM (MET(M1250T); [2]): 39%
- remaining activity at 1 µM (AKT3; [2]): 100%
- remaining activity at 1 µM (DMPK2; [2]): 67%
- remaining activity at 1 µM (GRK1; [2]): 82%
- remaining activity at 1 µM (FLT3; [2]): 3%
- remaining activity at 1 µM (MAST1; [2]): 100%
- remaining activity at 1 µM (CHEK2; [2]): 38%
- remaining activity at 1 µM (CAMK1; [2]): 57%
- remaining activity at 1 µM (FLT3(ITD); [2]): 1.6%
- remaining activity at 1 µM (LRRK2; [2]): 7.5%
- remaining activity at 1 µM (LIMK1; [2]): 90%
- remaining activity at 1 µM (LCK; [2]): 32%
- remaining activity at 1 µM (LRRK2(G2019S); [2]): 2.6%
- remaining activity at 1 µM (MEK5; [2]): 18%
- remaining activity at 1 µM (MAK; [2]): 100%
- remaining activity at 1 µM (GSK3A; [2]): 100%
- remaining activity at 1 µM (LYN; [2]): 49%
- remaining activity at 1 µM (MAP4K3; [2]): 23%
- remaining activity at 1 µM (BIKE; [2]): 18%
- remaining activity at 1 µM (DCAMKL2; [2]): 92%
